Measured values reported in patent US12435044B2, “Pyridazinone herbicides and pyridazinone intermediates used to prepare a herbicide” (FMC Corporation, priority 2018, dated 2025).

Tests used:
Test in all cases: Test E pre-/postemergence greenhouse test
Type in all cases: in vivo
[1] = tested on: barnyardgrass (Echinochloa crus-galli)
From the text: (§1) Seeds of plant species selected from corn (Zea mays), soybean (Glycine max), velvetleaf (Abutilon theophrasti), lambsquarters (Chenopodium album), poinsettia, wild (Euphorbia heterophylla), pigweed, palmer (Amaranthus palmeri), waterhemp (common waterhemp, Amaranthus rudis), surinam grass (Brachiaria decumbens), crabgrass, large (Digitaria sanguinalis), crabgrass, Brazil (Digitaria horizontalis), panicum, fall (Panicum dichotomiflorum), foxtail, giant (Setaria faberii), foxtail, green (Setaria viridis), goosegrass (Eleusine indica), johnsongrass (Sorghum halepense), ragweed (common ragweed, Ambrosia elatior), barnyardgrass (Echinochloa crus-galli), sandbur (southern sandbur, Cenchrus echinatus), arrowleaf sida (Sida rhombifolia), ryegrass, Italian (Lolium multiflorum), dayflower, VA (Virginia (VA) dayflower, Commelina virginica), field bindweed (Convolvulus arvensis), morningglory (Ipomoea coccinea), horseweed (Conyza canadensis), kochia (Kochia scoparia), nutsedge, yellow (Cyperus esculentus) and hairy beggarticks (Bidenspilosa), were planted into a silt loam soil and treated preemergence with test chemicals formulated in a non-phytotoxic solvent mixture which included a surfactant.
(§2) At the same time, plants selected from these crop and weed species and also waterhemp_RES1, (ALS & Triazine resistant common waterhemp, Amaranthus rudis), and waterhemp_RES2, (ALS & HPPD resistant common waterhemp, Amaranthus rudis) were planted in pots containing Redi-Earth® planting medium (Scotts Company, 14111 Scottslawn Road, Marysville, Ohio 43041) comprising spaghnum peat moss, vermiculite, wetting agent and starter nutrients were treated with postemergence applications of test chemicals formulated in the same manner. Plants ranged in height from 2 to 18 cm for postemergence treatments (1- to 4-leaf stage). Treated plants and controls were maintained in a greenhouse for 14 to 21 d, after which time all species were compared to controls and visually evaluated. Plant response ratings, summarized in Table E, are based on a scale of 0 to 100 where 0 is no effect and 100 is complete control. A dash (-) response means no test result.

corn (Zea mays) = tested on: corn (Zea mays)
From the text: as §1, §2

[2] = tested on: crabgrass, large (Digitaria sanguinalis)
From the text: as §1, §2

[3] = tested on: foxtail, giant (Setaria faberii)
From the text: as §1, §2

[4] = tested on: horseweed (Conyza canadensis)
From the text: as §1, §2

[5] = tested on: panicum, fall (Panicum dichotomiflorum)
From the text: as §1, §2

[6] = tested on: pigweed, palmer (Amaranthus palmeri)
From the text: as §1, §2

[7] = tested on: ragweed (common ragweed, Ambrosia elatior)
From the text: as §1, §2

soybean (Glycine max) = tested on: soybean (Glycine max)
From the text: as §1, §2

[8] = tested on: surinam grass (Brachiaria decumbens)
From the text: as §1, §2

[9] = tested on: velvetleaf (Abutilon theophrasti)
From the text: as §1, §2

[10] = tested on: waterhemp (common waterhemp, Amaranthus rudis)
From the text: as §1, §2

Cc1cc(Cl)c2ccccc2c1-c1c(O)c(Cl)nn(C)c1=O [Cpd. No. 65]
Plant response rating, Barnyardgrass ([1]; Postemergence, 16 g ai/ha): 80
Plant response rating, Barnyardgrass ([1]; Postemergence, 31 g ai/ha): 88
Plant response rating, Barnyardgrass ([1]; Postemergence, 62 g ai/ha): 93
Plant response rating, Barnyardgrass ([1]; Postemergence, 125 g ai/ha): 95
Plant response rating, Barnyardgrass ([1]; Preemergence, 16 g ai/ha): 0
Plant response rating, Barnyardgrass ([1]; Preemergence, 31 g ai/ha): 40
Plant response rating, Barnyardgrass ([1]; Preemergence, 62 g ai/ha): 38
Plant response rating, Barnyardgrass ([1]; Preemergence, 125 g ai/ha): 60
Plant response rating, Corn (corn (Zea mays); Postemergence, 16 g ai/ha): 0
Plant response rating, Corn (corn (Zea mays); Postemergence, 31 g ai/ha): 20
Plant response rating, Corn (corn (Zea mays); Postemergence, 62 g ai/ha): 23
Plant response rating, Corn (corn (Zea mays); Postemergence, 125 g ai/ha): 35
Plant response rating, Corn (corn (Zea mays); Preemergence, 16 g ai/ha): 0
Plant response rating, Corn (corn (Zea mays); Preemergence, 31 g ai/ha): 5
Plant response rating, Corn (corn (Zea mays); Preemergence, 62 g ai/ha): 20
Plant response rating, Corn (corn (Zea mays); Preemergence, 125 g ai/ha): 43
Plant response rating, Crabgrass, Large ([2]; Postemergence, 16 g ai/ha): 10
Plant response rating, Crabgrass, Large ([2]; Postemergence, 31 g ai/ha): 13
Plant response rating, Crabgrass, Large ([2]; Postemergence, 62 g ai/ha): 30
Plant response rating, Crabgrass, Large ([2]; Postemergence, 125 g ai/ha): 35
Plant response rating, Crabgrass, Large ([2]; Preemergence, 16 g ai/ha): 45
Plant response rating, Crabgrass, Large ([2]; Preemergence, 31 g ai/ha): 18
Plant response rating, Crabgrass, Large ([2]; Preemergence, 62 g ai/ha): 38
Plant response rating, Crabgrass, Large ([2]; Preemergence, 125 g ai/ha): 48
Plant response rating, Foxtail, Giant ([3]; Postemergence, 16 g ai/ha): 70
Plant response rating, Foxtail, Giant ([3]; Postemergence, 31 g ai/ha): 88
Plant response rating, Foxtail, Giant ([3]; Postemergence, 62 g ai/ha): 90
Plant response rating, Foxtail, Giant ([3]; Postemergence, 125 g ai/ha): 95
Plant response rating, Foxtail, Giant ([3]; Preemergence, 16 g ai/ha): 5
Plant response rating, Foxtail, Giant ([3]; Preemergence, 31 g ai/ha): 78
Plant response rating, Foxtail, Giant ([3]; Preemergence, 62 g ai/ha): 90
Plant response rating, Foxtail, Giant ([3]; Preemergence, 125 g ai/ha): 100
Plant response rating, Horseweed ([4]; Postemergence, 16 g ai/ha): 65
Plant response rating, Horseweed ([4]; Postemergence, 31 g ai/ha): 75
Plant response rating, Horseweed ([4]; Postemergence, 62 g ai/ha): 85
Plant response rating, Horseweed ([4]; Postemergence, 125 g ai/ha): 85
Plant response rating, Horseweed ([4]; Preemergence, 16 g ai/ha): 100
Plant response rating, Horseweed ([4]; Preemergence, 31 g ai/ha): 100
Plant response rating, Horseweed ([4]; Preemergence, 62 g ai/ha): 100
Plant response rating, Horseweed ([4]; Preemergence, 125 g ai/ha): 100
Plant response rating, Panicum, Fall ([5]; Postemergence, 16 g ai/ha): 80
Plant response rating, Panicum, Fall ([5]; Postemergence, 31 g ai/ha): 88
Plant response rating, Panicum, Fall ([5]; Postemergence, 62 g ai/ha): 93
Plant response rating, Panicum, Fall ([5]; Postemergence, 125 g ai/ha): 93
Plant response rating, Panicum, Fall ([5]; Preemergence, 16 g ai/ha): 75
Plant response rating, Panicum, Fall ([5]; Preemergence, 31 g ai/ha): 99
Plant response rating, Panicum, Fall ([5]; Preemergence, 62 g ai/ha): 100
Plant response rating, Panicum, Fall ([5]; Preemergence, 125 g ai/ha): 99
Plant response rating, Pigweed, Palmer ([6]; Postemergence, 16 g ai/ha): 35
Plant response rating, Pigweed, Palmer ([6]; Postemergence, 31 g ai/ha): 43
Plant response rating, Pigweed, Palmer ([6]; Postemergence, 62 g ai/ha): 68
Plant response rating, Pigweed, Palmer ([6]; Postemergence, 125 g ai/ha): 55
Plant response rating, Pigweed, Palmer ([6]; Preemergence, 16 g ai/ha): 40
Plant response rating, Pigweed, Palmer ([6]; Preemergence, 31 g ai/ha): 58
Plant response rating, Pigweed, Palmer ([6]; Preemergence, 62 g ai/ha): 80
Plant response rating, Pigweed, Palmer ([6]; Preemergence, 125 g ai/ha): 90
Plant response rating, Ragweed ([7]; Postemergence, 16 g ai/ha): 95
Plant response rating, Ragweed ([7]; Postemergence, 31 g ai/ha): 93
Plant response rating, Ragweed ([7]; Postemergence, 62 g ai/ha): 95
Plant response rating, Ragweed ([7]; Postemergence, 125 g ai/ha): 93
Plant response rating, Ragweed ([7]; Preemergence, 16 g ai/ha): 75
Plant response rating, Ragweed ([7]; Preemergence, 31 g ai/ha): 99
Plant response rating, Ragweed ([7]; Preemergence, 62 g ai/ha): 100
Plant response rating, Ragweed ([7]; Preemergence, 125 g ai/ha): 100
Plant response rating, Soybean (soybean (Glycine max); Postemergence, 16 g ai/ha): 70
Plant response rating, Soybean (soybean (Glycine max); Postemergence, 31 g ai/ha): 80
Plant response rating, Soybean (soybean (Glycine max); Postemergence, 62 g ai/ha): 90
Plant response rating, Soybean (soybean (Glycine max); Postemergence, 125 g ai/ha): 93
Plant response rating, Soybean (soybean (Glycine max); Preemergence, 16 g ai/ha): 23
Plant response rating, Soybean (soybean (Glycine max); Preemergence, 31 g ai/ha): 13
Plant response rating, Soybean (soybean (Glycine max); Preemergence, 62 g ai/ha): 15
Plant response rating, Soybean (soybean (Glycine max); Preemergence, 125 g ai/ha): 43
Plant response rating, Surinam Grass ([8]; Postemergence, 16 g ai/ha): 73
Plant response rating, Surinam Grass ([8]; Postemergence, 31 g ai/ha): 78
Plant response rating, Surinam Grass ([8]; Postemergence, 62 g ai/ha): 85
Plant response rating, Surinam Grass ([8]; Postemergence, 125 g ai/ha): 93
Plant response rating, Surinam Grass ([8]; Preemergence, 16 g ai/ha): 8
Plant response rating, Surinam Grass ([8]; Preemergence, 31 g ai/ha): 92
Plant response rating, Surinam Grass ([8]; Preemergence, 62 g ai/ha): 85
Plant response rating, Surinam Grass ([8]; Preemergence, 125 g ai/ha): 100
Plant response rating, Velvetleaf ([9]; Postemergence, 16 g ai/ha): 75
Plant response rating, Velvetleaf ([9]; Postemergence, 31 g ai/ha): 90
Plant response rating, Velvetleaf ([9]; Postemergence, 62 g ai/ha): 85
Plant response rating, Velvetleaf ([9]; Postemergence, 125 g ai/ha): 90
Plant response rating, Velvetleaf ([9]; Preemergence, 16 g ai/ha): 75
Plant response rating, Velvetleaf ([9]; Preemergence, 31 g ai/ha): 100
Plant response rating, Velvetleaf ([9]; Preemergence, 62 g ai/ha): 100
Plant response rating, Velvetleaf ([9]; Preemergence, 125 g ai/ha): 100
Plant response rating, Waterhemp ([10]; Postemergence, 16 g ai/ha): 83
Plant response rating, Waterhemp ([10]; Postemergence, 31 g ai/ha): 88
Plant response rating, Waterhemp ([10]; Postemergence, 62 g ai/ha): 99
Plant response rating, Waterhemp ([10]; Postemergence, 125 g ai/ha): 97
Plant response rating, Waterhemp ([10]; Preemergence, 16 g ai/ha): 75
Plant response rating, Waterhemp ([10]; Preemergence, 31 g ai/ha): 90
Plant response rating, Waterhemp ([10]; Preemergence, 62 g ai/ha): 99
Plant response rating, Waterhemp ([10]; Preemergence, 125 g ai/ha): 99
